Results published in ChEMBL document CHEMBL3885881, “DrugMatrix”.

Organism: Rattus norvegicus
Assay: DrugMatrix - Regimen: Daily Repeat
Type: toxicity, organism-based, Sprague-Dawley
Set-up: regimen Daily Repeat, gender Male, age 6-8 weeks
Details: in vivo, po, route oral GAVAGE, vehicle .5 % CMC; for ABSOLUTE BASOPHIL / ABSOLUTE EOSINOPHIL / ABSOLUTE LYMPHOCYTE / ABSOLUTE MONOCYTE / ABSOLUTE SEGMENTED NEUTROPHIL / BASOPHIL / EOSINOPHIL / ERYTHROCYTE COUNT / HEMATOCRIT / HEMOGLOBIN / LEUKOCYTE COUNT / LYMPHOCYTE / MEAN CORPUSCULAR HEMOGLOBIN / MEAN CORPUSCULAR HEMOGLOBIN CONCENTRATION / MEAN CORPUSCULAR VOLUME / MONOCYTE / NEUTROPHIL / NUCLEATED RED BLOOD CELLS / PLATELET COUNT: tissue Blood; for ALANINE AMINOTRANSFERASE / ALBUMIN / ALKALINE PHOSPHATASE / ASPARTATE AMINOTRANSFERASE / BLOOD UREA NITROGEN / CARBON DIOXIDE / CHLORIDE / CHOLESTEROL / CREATINE PHOSPHOKINASE / CREATININE / GLUCOSE / LACTATE DEHYDROGENASE / LIPASE / PHOSPHORUS / POTASSIUM / SODIUM / TOTAL BILIRUBIN / TOTAL PROTEIN / URIC ACID: tissue Plasma
[1] = 0 mg/kg, 72 h, dose level Control, time 3 day
[2] = 0 mg/kg, 120 h, dose level Control, time 5 day
[3] = 580 mg/kg, 72 h, dose level High, time 3 day

## CN1C(=O)COc2c(C(=O)NC3CN4CCC3CC4)cc(Cl)cc21 (centres undefined) [AZASETRON]
[1]
  ABSOLUTE BASOPHIL: 0 CELLS/uL
  ABSOLUTE EOSINOPHIL: 47.67 CELLS/uL
  ABSOLUTE LYMPHOCYTE: 15937.67 CELLS/uL
  ABSOLUTE MONOCYTE: 138.33 CELLS/uL
  ABSOLUTE SEGMENTED NEUTROPHIL: 1443 CELLS/uL
  BASOPHIL: 0%
  EOSINOPHIL: 0.33%
  ERYTHROCYTE COUNT: 5.45 x10E6/uL
  HEMATOCRIT: 34.43%
  HEMOGLOBIN: 13.38 G/DL
  LEUKOCYTE COUNT: 17.57 x10E3/uL
  LYMPHOCYTE: 90.33%
  MEAN CORPUSCULAR HEMOGLOBIN: 24.6 pg
  MEAN CORPUSCULAR HEMOGLOBIN CONCENTRATION: 38.88 G/DL
  MEAN CORPUSCULAR VOLUME: 63.27 fL
  MONOCYTE: 0.83%
  NEUTROPHIL: 8.5%
  NUCLEATED RED BLOOD CELLS: 0 /100WBC
  PLATELET COUNT: 1298 x10E3/uL
  ALANINE AMINOTRANSFERASE: 47.67 u/L
  ALBUMIN: 4.18 G/DL
  ALKALINE PHOSPHATASE: 398.5 u/L
  ASPARTATE AMINOTRANSFERASE: 93.17 u/L
  BLOOD UREA NITROGEN: 16 mg/dL
  CARBON DIOXIDE: 29.17 mmol/L
  CHLORIDE: 98.17 MEQ/L
  CHOLESTEROL: 68.83 mg/dL
  CREATINE PHOSPHOKINASE: 467.33 u/L
  CREATININE: 0.14 mg/dL
  GLUCOSE: 151.67 mg/dL
  LACTATE DEHYDROGENASE: 597.5 u/L
  LIPASE: 9.33 u/L
  PHOSPHORUS: 11.97 mg/dL
  POTASSIUM: 6.43 MEQ/L
  SODIUM: 140.68 MEQ/L
  TOTAL BILIRUBIN: 0.18 mg/dL
  TOTAL PROTEIN: 5.82 G/DL
  URIC ACID: 1.48 mg/dL
[2]
  ABSOLUTE BASOPHIL: 0 CELLS/uL
  ABSOLUTE EOSINOPHIL: 31 CELLS/uL
  ABSOLUTE LYMPHOCYTE: 14327.83 CELLS/uL
  ABSOLUTE MONOCYTE: 102.83 CELLS/uL
  ABSOLUTE SEGMENTED NEUTROPHIL: 1321.67 CELLS/uL
  BASOPHIL: 0%
  EOSINOPHIL: 0.17%
  ERYTHROCYTE COUNT: 5.79 x10E6/uL
  HEMATOCRIT: 36.1%
  HEMOGLOBIN: 14.15 G/DL
  LEUKOCYTE COUNT: 15.78 x10E3/uL
  LYMPHOCYTE: 90.5%
  MEAN CORPUSCULAR HEMOGLOBIN: 24.48 pg
  MEAN CORPUSCULAR HEMOGLOBIN CONCENTRATION: 39.22 G/DL
  MEAN CORPUSCULAR VOLUME: 62.4 fL
  MONOCYTE: 0.67%
  NEUTROPHIL: 8.67%
  NUCLEATED RED BLOOD CELLS: 0.17 /100WBC
  PLATELET COUNT: 1211.67 x10E3/uL
  ALANINE AMINOTRANSFERASE: 49 u/L
  ALBUMIN: 4.27 G/DL
  ALKALINE PHOSPHATASE: 356.67 u/L
  ASPARTATE AMINOTRANSFERASE: 90.17 u/L
  BLOOD UREA NITROGEN: 20.5 mg/dL
  CARBON DIOXIDE: 29.17 mmol/L
  CHLORIDE: 98 MEQ/L
  CHOLESTEROL: 69.83 mg/dL
  CREATINE PHOSPHOKINASE: 312 u/L
  CREATININE: 0.21 mg/dL
  GLUCOSE: 149.83 mg/dL
  LACTATE DEHYDROGENASE: 322 u/L
  LIPASE: 10 u/L
  PHOSPHORUS: 12 mg/dL
  POTASSIUM: 6.75 MEQ/L
  SODIUM: 142.8 MEQ/L
  TOTAL BILIRUBIN: 0.17 mg/dL
  TOTAL PROTEIN: 6.1 G/DL
  URIC ACID: 1.68 mg/dL
[3]
  ABSOLUTE BASOPHIL: 0 CELLS/uL
  ABSOLUTE EOSINOPHIL: 0 CELLS/uL
  ABSOLUTE LYMPHOCYTE: 13751.33 CELLS/uL
  ABSOLUTE MONOCYTE: 160.33 CELLS/uL
  ABSOLUTE SEGMENTED NEUTROPHIL: 1088.33 CELLS/uL
  BASOPHIL: 0%
  EOSINOPHIL: 0%
  ERYTHROCYTE COUNT: 6.01 x10E6/uL
  HEMATOCRIT: 37.33%
  HEMOGLOBIN: 14.57 G/DL
  LEUKOCYTE COUNT: 15 x10E3/uL
  LYMPHOCYTE: 91.67%
  MEAN CORPUSCULAR HEMOGLOBIN: 24.27 pg
  MEAN CORPUSCULAR HEMOGLOBIN CONCENTRATION: 39.03 G/DL
  MEAN CORPUSCULAR VOLUME: 62.13 fL
  MONOCYTE: 1%
  NEUTROPHIL: 7.33%
  NUCLEATED RED BLOOD CELLS: 0 /100WBC
  PLATELET COUNT: 1244 x10E3/uL
  ALANINE AMINOTRANSFERASE: 64.33 u/L
  ALBUMIN: 4.27 G/DL
  ALKALINE PHOSPHATASE: 372.33 u/L
  ASPARTATE AMINOTRANSFERASE: 96.67 u/L
  BLOOD UREA NITROGEN: 17.33 mg/dL
  CARBON DIOXIDE: 26.67 mmol/L
  CHLORIDE: 99.33 MEQ/L
  CHOLESTEROL: 72.67 mg/dL
  CREATINE PHOSPHOKINASE: 527.67 u/L
  CREATININE: 0.25 mg/dL
  GLUCOSE: 150 mg/dL
  LACTATE DEHYDROGENASE: 877 u/L
  LIPASE: 9.67 u/L
  PHOSPHORUS: 11.3 mg/dL
  POTASSIUM: 6.57 MEQ/L
  SODIUM: 141.63 MEQ/L
  TOTAL BILIRUBIN: 0.23 mg/dL
  TOTAL PROTEIN: 6 G/DL
  URIC ACID: 1.73 mg/dL
